Measurements as given in PMC4349624, “In vitro synergistic effect of fluoroquinolone analogues in combination with artemisinin against Plasmodium falciparum; their antiplasmodial action in rodent malaria model” (Malaria Journal, 2015).

Columns and labels:
[1] = test system: Plasmodium falciparum 3D7 strain; experiment: antiplasmodial interaction assay, fixed-ratio combination isobologram method with artemisinin; format: cell-based; settings: n = 3
Description: Stock culture of malaria parasite P. falciparum 3D7 strain (chloroquine sensitive) was continuously maintained in vitro using a CO2 incubator under low-oxygen concentration (3%) and high carbon dioxide atmosphere (4%) along with nitrogen (93%), incubated at a temperature of 37°C. The parasites were maintained on O^+ human red blood cells suspended in a complete culture medium. Each litre of RPMI-1640 aqueous culture medium was prepared with 10.4 g of powdered RPMI-1640 (with glutamine but without sodium bicarbonate), 5.94 g of HEPES buffer, 1 g of dextrose and 40 mg of gentamicin. Complete medium was constituted just before use by adding sterile 5% sodium bicarbonate at the rate of 4 ml per 96 ml, and supplemented with 10% (v/v) pooled O^+ human serum. Infected erythrocytes were suspended in this culture media initiated at a haematocrit value of 5% and parasitemia was kept between 2 and 4% with sub-culturing done beyond 5%. Medium was changed once a day and percentage parasitemia was monitored using Giemsa stained slides.
Artemisinin (Sigma Aldrich, USA) was prepared in DMSO to get the stock solution of 1 mg/ml strength. Compounds 10, 12 and 18 were synthesized according to the procedure described by Dixit et al. and each compound was made to strength of 1 mg/ml stock solution in DMSO. The stock solutions were diluted on the day of experiment to get the desired concentrations for each compound. The highest amount of DMSO in diluted concentrations was 0.125%, and had no effect on parasite growth.
In each combination assay, two compounds (Compound A, artemisinin and Compound B, a fluoroquinolone derivative or norfloxacin) were combined in four fixed ratios (4:1, 3:2, 2:3, and 1:4).
Compound dilutions of each combination solution were made in sterile, flat-bottomed, 96-well tissue culture plates as described by Fivelman et al.. Six times two-fold serial dilution was done for each combination in triplicate. Each well contained a total volume of 200 μl of complete culture medium with or without compound and pre-synchronized infected red blood cells (1% parasitemia at 2.5% haematocrit). Control cultures (without compound) were maintained on the same plate in triplicate. Two 96-well plates (for six combinations) were used for each combination experiment. The plates were stacked in a CO2 incubator and incubated at 37°C for 48 hours.
After 48-hour incubation, thin blood smear slides were prepared, air dried, methanol fixed, and stained in Giemsa solution for 40 min. After staining, slides were removed from coupling jar, washed in running tap water and air dried. The Giemsa-stained slides were examined for counting the number of parasites in random adjacent microscopic fields, equivalent to about 4,000 erythrocytes at 1,000 × magnification. Per cent parasitemia was calculated. Reproducibility of counts was checked by two other readers to maintain the quality control.
For each combination assay, IC50 was calculated from two sets of concentration response graphs, each containing compound alone curve and four combination curves.
ƩFIC <1 represents synergism, ƩFIC > = 1 and <2 represents additive interaction, ƩFIC > = 2 and <4 represents slight antagonism while ƩFIC > = 4 represents marked antagonism.

Plasmodium berghei ANKA = experiment: Peters' four-day suppressive test in BALB/c mice; format: in vivo; settings: ip; for Mean ED50 ± SE: once daily days 0 to 3, BALB/c mice, n = 5
From the text: Evaluation of the curative potential of the fluoroquinolone derivatives was done using the method described by Ryley and Peters, 1970 (rodent malaria four-day suppressive test; Peters’ four-day suppressive test). Rodent malaria parasite Plasmodium berghei ANKA was used.
[…] BALB/c inbred albino mice (25–30 g) of the male sex were obtained from the Animal Facility Centre of the Department of Zoology, University of Delhi. The animals were fed ad libitum with standard feed and had free access to water. They were maintained under standard conditions of humidity, temperature (25°C) and 12 hours light/darkness cycles. The animals were acclimatized for two weeks before the commencement of the study and were ensured to exclude all zoonotic agents.
Day 0: Heparinized blood was withdrawn from an infected donor mouse with approximately 25-30% parasitemia, and diluted in 1x PBS to 10^8 parasitized erythrocytes per mL. An aliquot of 0.2 mL (=2 × 10^7 parasitized erythrocytes) of this suspension was injected intraperitoneally (ip) into experimental groups of five mice each. One to three hours post-infection, the experimental groups were treated with varying doses of each of the test compounds (0.5, 1, 10, 25 mg/kg BW) by the ip route. Each compound was made to strength of 5 mg/ml stock solution in 10% DMSO and administered according to desired concentration and individual body weight. Artemisinin was given to the standard drug group and 0.2 mL of normal saline to the negative control group.
Day 1, 2 and 3: 24 hours, 48 hours and 72 hours post-infection, the experimental groups of mice were treated again with the same dose and by the same route as on day 0.
Day 4: 24 hours after the last treatment (i.e., 96 hours post-infection), blood was drawn from the tail region of mice and smears were prepared. […] Differences in parasitemia percentage between treated groups and untreated animals were analysed by a one-way ANOVA test using IBM SPSS Statistics 16.0 and differences considered significant if P < 0.05. […] Percentinhibitionactivity=100–Meanparasitemia/control×100
Untreated control mice typically died approximately one week after infection. […] The mean survival time was calculated in comparison to untreated (Normal saline) and standard drug (artemisinin) treated groups. Differences in survival time between treated groups and untreated animals were analysed by Log-rank (Mantel-Cox) test using GraphPad Prism 5 and differences considered significant if P <0.005. Observations concerning adverse effects due to the compounds were recorded.

[2] = cited from earlier work

## C[C@@H]1CC[C@H]2[C@@H](C)C(=O)O[C@@H]3O[C@@]4(C)CC[C@@H]1[C@]32OO4 [Artemisinin]
[1]; ratio A:B 1:4, combined with compound 10
  Drug A (Artemisinin) Mean FIC50 ± SE: 0.17 ± 0.03
[1]; ratio A:B 1:4, combined with compound 12
  Drug A (Artemisinin) Mean FIC50 ± SE: 0.25 ± 0.004
[1]; ratio A:B 1:4, combined with compound 18
  Drug A (Artemisinin) Mean FIC50 ± SE: 0.22 ± 0.01
[1]; ratio A:B 1:4, combined with norfloxacin
  Drug A (Artemisinin) Mean FIC50 ± SE: 0.14 ± 0.01
[1]; ratio A:B 2:3, combined with compound 10
  Drug A (Artemisinin) Mean FIC50 ± SE: 0.48 ± 0.02
[1]; ratio A:B 2:3, combined with compound 12
  Drug A (Artemisinin) Mean FIC50 ± SE: 0.50 ± 0.02
[1]; ratio A:B 2:3, combined with compound 18
  Drug A (Artemisinin) Mean FIC50 ± SE: 0.49 ± 0.04
[1]; ratio A:B 2:3, combined with norfloxacin
  Drug A (Artemisinin) Mean FIC50 ± SE: 0.66 ± 0.02
[1]; ratio A:B 3:2, combined with compound 10
  Drug A (Artemisinin) Mean FIC50 ± SE: 0.58 ± 0.03
[1]; ratio A:B 3:2, combined with compound 12
  Drug A (Artemisinin) Mean FIC50 ± SE: 0.60 ± 0.03
[1]; ratio A:B 3:2, combined with compound 18
  Drug A (Artemisinin) Mean FIC50 ± SE: 0.55 ± 0.03
[1]; ratio A:B 3:2, combined with norfloxacin
  Drug A (Artemisinin) Mean FIC50 ± SE: 0.29 ± 0.02
[1]; ratio A:B 4:1, combined with compound 10
  Drug A (Artemisinin) Mean FIC50 ± SE: 0.61 ± 0.01
[1]; ratio A:B 4:1, combined with compound 12
  Drug A (Artemisinin) Mean FIC50 ± SE: 0.63 ± 0.03
[1]; ratio A:B 4:1, combined with compound 18
  Drug A (Artemisinin) Mean FIC50 ± SE: 0.58 ± 0.02
[1]; ratio A:B 4:1, combined with norfloxacin
  Drug A (Artemisinin) Mean FIC50 ± SE: 0.91 ± 0.03
[1]; ratio A:B 5:0, assay with compound 10
  Drug A (Artemisinin) Mean FIC50 ± SE: 1.02 ± 0.04
[1]; ratio A:B 5:0, assay with compound 12
  Drug A (Artemisinin) Mean FIC50 ± SE: 1.0 ± 0.02
[1]; ratio A:B 5:0, assay with compound 18
  Drug A (Artemisinin) Mean FIC50 ± SE: 0.97 ± 0.07
[1]; ratio A:B 5:0, assay with norfloxacin
  Drug A (Artemisinin) Mean FIC50 ± SE: 1.13 ± 0.06
Plasmodium berghei ANKA
  Mean ED50 ± SE: 1.72 ± 0.15 mg/kg BW
Plasmodium berghei ANKA; listed as artemisinin
  Mean ED50 ± SE: 1.72 mg/kg BW
Plasmodium berghei ANKA; varying doses 0.5-25 mg/kg BW, observed 30 days
  survival of treated mice: survived beyond two weeks
[2]
  half life: < one
